In data set [1] the target is MRGPRA1, GFP-tagged (mouse) (UniProt Q91WW5).
The next data set concerns mice. The data set is described as follows: Plasma injection assay: scratching bouts after injection of mouse or human plasma. In kind it is in vivo. As to conditions: plasma treated with FeCl3 (vs NT), one value per animal. From the text: Plasma from patients suffering from hyperbilirubinemia, specifically cholestasis, was isolated under a protocol approved by the Institutional Review Board at the Johns Hopkins University School of Medicine (Study number: IRB00154650). […] Both cholestatic and control plasma were isolated under protocols approved by the Institutional Review Board at the Johns Hopkins University School of Medicine (Cholestasis Study number: IRB00154650; Control study number: NA_00013177, the Johns Hopkins Department of Dermatology Patient Database and Tissue Bank). Whole blood was collected into PAXgene tubes (PreAnalytiX 761115) and centrifuged for 5 min at 300 g. Plasma was then collected, aliquoted, and stored at −20°C until experimentation. […] All applicable behavioral tests were performed and analysed with the experimenter blind to genotype. […] There were no significant differences in itch between male and female mice. […] On the day before the experiment, animals were placed in the test chamber for 30 min before being subjected to a series of three mock injections with 5 min break periods in between. On the day of the experiment, animals were first allowed to acclimatize to the test chamber for 10 min before injection. […] A bout of scratching was defined as a continuous scratching movement with either hindpaw directed at the area of the injection site. In the cheek injection model, a wipe was defined as a single forepaw stroking the site of the injection. Use of both forepaws on the face or cheek was considered as grooming behavior. […] For H1R block, 30 mg/kg of cetirizine HCl (pH 7.4) was given intraperitoneally thirty minutes prior to injection of bilirubin. Licking behavior was quantified in seconds and identified as the licking of the toes or footpad of the hind paw site of injection that was neither preceded nor followed by licking of any other portion of the body.

For data set [2] the following is noted: cited from earlier work.
The conditions of data set [3]: mouse, in vivo, 1 mg/kg.

“And” between values parts separate entries of the source, which are not always exact repeats. Equal entries are not always repeated. Square brackets hold non-standard residues; d marks the D form. Peptide text beside a SMILES is read from it. * marks the point of attachment. Boc = CC(C)(C)OC(=O)*; OBn = c1ccc(CO*)cc1; For = O=C*

Sequence of MRGPRA1, GFP-tagged (mouse) (Q91WW5 whole entry): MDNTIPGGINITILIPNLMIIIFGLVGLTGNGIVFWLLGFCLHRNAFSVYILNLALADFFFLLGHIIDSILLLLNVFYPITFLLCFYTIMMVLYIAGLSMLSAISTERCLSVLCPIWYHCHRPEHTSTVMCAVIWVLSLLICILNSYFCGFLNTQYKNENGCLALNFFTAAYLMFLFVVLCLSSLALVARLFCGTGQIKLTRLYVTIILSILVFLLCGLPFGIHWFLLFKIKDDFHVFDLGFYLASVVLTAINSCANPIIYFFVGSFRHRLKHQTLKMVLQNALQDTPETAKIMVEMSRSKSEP

“QWF (BOC-GLN-D-(FORMYL)TRP-PHE-BENZYLESTER) (peptide)” had an inhibition of the bilirubin-induced Ca2+ signal in MRGPRA1-expressing HEK cells (200 µM bilirubin kept in competition with varied doses of QWF) in data set [1] of 2.9 µM.

Take `[Cl][Fe]([Cl])[Cl]` [FeCl3]: the “Scratching bouts after injection of plasma” value was 75 and 132 and 54 and 111 and 173 and 58 and 34 with mice (NT values equal cholestasis WT c1 of sheet Fig 7 - CD); 117 and 53 and 60 and 54 and 67 in the data set with mice (NT/FeCl3 pair, NT values equal cholestasis WT c7 of sheet Fig 7 - CD); 45 and 53 and 51 and 41 and 34 with mice (NT/FeCl3 pair, plasma source not given).

Take `CC(C)(C)OC(=O)N[C@@H](CCC(N)=O)C(=O)N[C@H](Cc1cn(C=O)c2ccccc12)C(=O)N[C@@H](Cc1ccccc1)C(=O)OCc1ccccc1` [QWF, BOC-GLN-D-(FORMYL)TRP-PHE-BENZYLESTER] (Boc-Gln-[dW](For)-Phe-OBn): in data set [2], the t1/2 in plasma was 1.17 h. In addition, the “Plasma levels of total bilirubin, AST, ALT, ALP” value in data set [3] was “did not change plasma levels of total bilirubin, AST, ALT, or ALP”.

The record behind these values is publication PMC6368403, “Identification of a bilirubin receptor that may mediate a component of cholestatic itch” (eLife, 2019).
